Values of other authors in patent US11122832B2, “Methods and compositions to improve weight loss and cardiometabolic health beyond diet and excercise” (Nature's Sunshine Products, Inc., priority 2016, dated 2021).
Like-named read-outs stand apart in the source and are kept apart here.

What was measured:
[1] = tested on: plasma concentration of NOx; details: 6 g, over 120 minutes, healthy individuals with normal plasma ADMA
[2] = not given; remark: listed apart in the source

SMILES: N=C(N)NCCC[C@H](N)C(=O)O [L-arginine]
- plasma concentration of NOx after acute supplementation [1]: does not increase

SMILES: C[C@H]1CNCCc2ccc(Cl)cc21 [Lorcaserin]
- Responders (5% weight loss) (Evaluation 12 weeks, BID 10 mg, placebo 12%): 36%
- ≥10% weight loss responders (Period 56 weeks, placebo 9%): 22%
- ≥5% weight loss responders (Period 56 weeks, placebo 23%): 47%

SMILES: O=NO [NO2, nitrite]
- filtered amount reabsorbed in the renal tubules ([2]; estimated): 96%

SMILES: O=[N+]([O-])O [NO3, nitrate]
- bioavailability of dietary NO3 ([2]; dietary (oral)): 100%
- clearance from blood to urine ([2]; in adults): approximately 20 mL/min
- time to peak plasma concentration ([2]; orally consumed): approximately 1 hour
- half-life of plasma NO3 ([2]; plasma): 5 to 8 h

SMILES: [N]=O [NO, Nitric oxide]
- half-life of NO once produced through NOS ([2]; in vivo): approximately 1 second

SMILES: CCCCCCCCCCC[C@@H](C[C@@H]1OC(=O)[C@H]1CCCCCC)OC(=O)[C@H](CC(C)C)NC=O [Orlistat]
- ≥5% weight loss responders (Period 24 weeks): 42%
- ≥10% weight loss responders (Period 24 weeks): 15%
- ≥5% weight loss responders (Period 24 weeks, listed as orlistat): 42%
